# Data as given in ChEMBL document CHEMBL3885881, “DrugMatrix”.
# Organism: Rattus norvegicus
# Experiment: DrugMatrix - Regimen: Daily Repeat
# Assay type: toxicity, organism-based, Sprague-Dawley
# Set-up: regimen Daily Repeat, gender Male, age 6-8 weeks
# Conditions: in vivo, po, route oral GAVAGE, vehicle 100 % SALINE; for ABSOLUTE BASOPHIL / ABSOLUTE EOSINOPHIL / ABSOLUTE LYMPHOCYTE / ABSOLUTE MONOCYTE / ABSOLUTE SEGMENTED NEUTROPHIL / BASOPHIL / EOSINOPHIL / ERYTHROCYTE COUNT / HEMOGLOBIN / LEUKOCYTE COUNT / LYMPHOCYTE / MEAN CORPUSCULAR HEMOGLOBIN / MEAN CORPUSCULAR HEMOGLOBIN CONCENTRATION / MEAN CORPUSCULAR VOLUME / MONOCYTE / NEUTROPHIL / NUCLEATED RED BLOOD CELLS / PLATELET COUNT / HEMATOCRIT: tissue Blood
# [1] = 200 mg/kg, 120 h, dose level Low, time 5 day
# [2] = 200 mg/kg, 120 h, tissue Plasma, dose level Low, time 5 day
# [3] = 600 mg/kg, 72 h, dose level High, time 3 day
# [4] = 600 mg/kg, 72 h, tissue Plasma, dose level High, time 3 day
# [5] = 600 mg/kg, 120 h, dose level High, time 5 day
# [6] = 600 mg/kg, 120 h, tissue Plasma, dose level High, time 5 day
substance,measurement,setting,value
LEAD(IV) ACETATE,ABSOLUTE BASOPHIL,[1],0 CELLS/uL
same,ABSOLUTE EOSINOPHIL,[1],0 CELLS/uL
same,ABSOLUTE LYMPHOCYTE,[1],11837.33 CELLS/uL
same,ABSOLUTE MONOCYTE,[1],82.67 CELLS/uL
same,ABSOLUTE SEGMENTED NEUTROPHIL,[1],680 CELLS/uL
same,BASOPHIL,[1],0%
same,EOSINOPHIL,[1],0%
same,ERYTHROCYTE COUNT,[1],5.76 x10E6/uL
same,HEMOGLOBIN,[1],13.8 G/DL
same,LEUKOCYTE COUNT,[1],12.6 x10E3/uL
same,LYMPHOCYTE,[1],93.67%
same,MEAN CORPUSCULAR HEMOGLOBIN,[1],23.93 pg
same,MEAN CORPUSCULAR HEMOGLOBIN CONCENTRATION,[1],39.23 G/DL
same,MEAN CORPUSCULAR VOLUME,[1],61.03 fL
same,MONOCYTE,[1],0.67%
same,NEUTROPHIL,[1],5.67%
same,NUCLEATED RED BLOOD CELLS,[1],0.33 /100WBC
same,PLATELET COUNT,[1],1075 x10E3/uL
same,ALANINE AMINOTRANSFERASE,[2],43.33 u/L
same,ALKALINE PHOSPHATASE,[2],339 u/L
same,ASPARTATE AMINOTRANSFERASE,[2],80 u/L
same,BLOOD UREA NITROGEN,[2],13.33 mg/dL
same,CARBON DIOXIDE,[2],33 mmol/L
same,CHLORIDE,[2],99 MEQ/L
same,CHOLESTEROL,[2],74.67 mg/dL
same,CREATINE PHOSPHOKINASE,[2],263.33 u/L
same,CREATININE,[2],0.31 mg/dL
same,GLUCOSE,[2],134 mg/dL
same,LACTATE DEHYDROGENASE,[2],132.67 u/L
same,LIPASE,[2],14.33 u/L
same,PHOSPHORUS,[2],11.33 mg/dL
same,POTASSIUM,[2],5.88 MEQ/L
same,SODIUM,[2],146.7 MEQ/L
same,TOTAL BILIRUBIN,[2],0.17 mg/dL
same,TOTAL PROTEIN,[2],6.4 G/DL
same,URIC ACID,[2],0.57 mg/dL
same,ABSOLUTE BASOPHIL,[3],0 CELLS/uL
same,ABSOLUTE EOSINOPHIL,[3],0 CELLS/uL
same,ABSOLUTE LYMPHOCYTE,[3],6951.33 CELLS/uL
same,ABSOLUTE MONOCYTE,[3],49.33 CELLS/uL
same,ABSOLUTE SEGMENTED NEUTROPHIL,[3],532.67 CELLS/uL
same,BASOPHIL,[3],0%
same,EOSINOPHIL,[3],0%
same,ERYTHROCYTE COUNT,[3],5.19 x10E6/uL
same,HEMATOCRIT,[3],32%
same,HEMOGLOBIN,[3],12.7 G/DL
same,LEUKOCYTE COUNT,[3],7.53 x10E3/uL
same,LYMPHOCYTE,[3],92%
same,MEAN CORPUSCULAR HEMOGLOBIN CONCENTRATION,[3],39.7 G/DL
same,MONOCYTE,[3],0.67%
same,NEUTROPHIL,[3],7.33%
same,NUCLEATED RED BLOOD CELLS,[3],0 /100WBC
same,PLATELET COUNT,[3],1337.33 x10E3/uL
same,ALANINE AMINOTRANSFERASE,[4],41.67 u/L
same,ALBUMIN,[4],4 G/DL
same,ALKALINE PHOSPHATASE,[4],253 u/L
same,ASPARTATE AMINOTRANSFERASE,[4],83 u/L
same,BLOOD UREA NITROGEN,[4],10.33 mg/dL
same,CARBON DIOXIDE,[4],27 mmol/L
same,CHOLESTEROL,[4],81.33 mg/dL
same,CREATINE PHOSPHOKINASE,[4],396 u/L
same,CREATININE,[4],0.38 mg/dL
same,LACTATE DEHYDROGENASE,[4],126.67 u/L
same,LIPASE,[4],11.33 u/L
same,POTASSIUM,[4],5.16 MEQ/L
same,TOTAL BILIRUBIN,[4],0.1 mg/dL
same,URIC ACID,[4],0.83 mg/dL
same,ABSOLUTE BASOPHIL,[5],0 CELLS/uL
same,ABSOLUTE EOSINOPHIL,[5],0 CELLS/uL
same,ABSOLUTE LYMPHOCYTE,[5],13230 CELLS/uL
same,ABSOLUTE MONOCYTE,[5],139 CELLS/uL
same,ABSOLUTE SEGMENTED NEUTROPHIL,[5],1031 CELLS/uL
same,BASOPHIL,[5],0%
same,EOSINOPHIL,[5],0%
same,ERYTHROCYTE COUNT,[5],6.04 x10E6/uL
same,HEMATOCRIT,[5],35.43%
same,HEMOGLOBIN,[5],13.83 G/DL
same,LEUKOCYTE COUNT,[5],14.4 x10E3/uL
same,LYMPHOCYTE,[5],92%
same,MEAN CORPUSCULAR HEMOGLOBIN,[5],22.97 pg
same,MEAN CORPUSCULAR HEMOGLOBIN CONCENTRATION,[5],39.07 G/DL
same,MEAN CORPUSCULAR VOLUME,[5],58.67 fL
same,MONOCYTE,[5],1%
same,NEUTROPHIL,[5],7%
same,NUCLEATED RED BLOOD CELLS,[5],0.33 /100WBC
same,PLATELET COUNT,[5],1226 x10E3/uL
same,ALANINE AMINOTRANSFERASE,[6],46.33 u/L
same,ALKALINE PHOSPHATASE,[6],257 u/L
same,ASPARTATE AMINOTRANSFERASE,[6],82 u/L
same,BLOOD UREA NITROGEN,[6],11.67 mg/dL
same,CARBON DIOXIDE,[6],35 mmol/L
same,CHLORIDE,[6],97.67 MEQ/L
same,CHOLESTEROL,[6],86 mg/dL
same,CREATINE PHOSPHOKINASE,[6],294 u/L
same,CREATININE,[6],0.19 mg/dL
same,LACTATE DEHYDROGENASE,[6],99 u/L
same,PHOSPHORUS,[6],10.3 mg/dL
same,POTASSIUM,[6],5.89 MEQ/L
same,TOTAL BILIRUBIN,[6],0.13 mg/dL
same,TOTAL PROTEIN,[6],6 G/DL
same,URIC ACID,[6],0.7 mg/dL
